We go through 14 compounds from BindingDB's records for PubMed 29032032 (Quaid-I-Azam University, 2017).

As usually defined, the IC50 is the concentration needed to halve the response being measured. Low values mean greater potency in that assay, high ones weaker potency in that assay.

Maltase-glucoamylase, sequence (O43451 whole entry): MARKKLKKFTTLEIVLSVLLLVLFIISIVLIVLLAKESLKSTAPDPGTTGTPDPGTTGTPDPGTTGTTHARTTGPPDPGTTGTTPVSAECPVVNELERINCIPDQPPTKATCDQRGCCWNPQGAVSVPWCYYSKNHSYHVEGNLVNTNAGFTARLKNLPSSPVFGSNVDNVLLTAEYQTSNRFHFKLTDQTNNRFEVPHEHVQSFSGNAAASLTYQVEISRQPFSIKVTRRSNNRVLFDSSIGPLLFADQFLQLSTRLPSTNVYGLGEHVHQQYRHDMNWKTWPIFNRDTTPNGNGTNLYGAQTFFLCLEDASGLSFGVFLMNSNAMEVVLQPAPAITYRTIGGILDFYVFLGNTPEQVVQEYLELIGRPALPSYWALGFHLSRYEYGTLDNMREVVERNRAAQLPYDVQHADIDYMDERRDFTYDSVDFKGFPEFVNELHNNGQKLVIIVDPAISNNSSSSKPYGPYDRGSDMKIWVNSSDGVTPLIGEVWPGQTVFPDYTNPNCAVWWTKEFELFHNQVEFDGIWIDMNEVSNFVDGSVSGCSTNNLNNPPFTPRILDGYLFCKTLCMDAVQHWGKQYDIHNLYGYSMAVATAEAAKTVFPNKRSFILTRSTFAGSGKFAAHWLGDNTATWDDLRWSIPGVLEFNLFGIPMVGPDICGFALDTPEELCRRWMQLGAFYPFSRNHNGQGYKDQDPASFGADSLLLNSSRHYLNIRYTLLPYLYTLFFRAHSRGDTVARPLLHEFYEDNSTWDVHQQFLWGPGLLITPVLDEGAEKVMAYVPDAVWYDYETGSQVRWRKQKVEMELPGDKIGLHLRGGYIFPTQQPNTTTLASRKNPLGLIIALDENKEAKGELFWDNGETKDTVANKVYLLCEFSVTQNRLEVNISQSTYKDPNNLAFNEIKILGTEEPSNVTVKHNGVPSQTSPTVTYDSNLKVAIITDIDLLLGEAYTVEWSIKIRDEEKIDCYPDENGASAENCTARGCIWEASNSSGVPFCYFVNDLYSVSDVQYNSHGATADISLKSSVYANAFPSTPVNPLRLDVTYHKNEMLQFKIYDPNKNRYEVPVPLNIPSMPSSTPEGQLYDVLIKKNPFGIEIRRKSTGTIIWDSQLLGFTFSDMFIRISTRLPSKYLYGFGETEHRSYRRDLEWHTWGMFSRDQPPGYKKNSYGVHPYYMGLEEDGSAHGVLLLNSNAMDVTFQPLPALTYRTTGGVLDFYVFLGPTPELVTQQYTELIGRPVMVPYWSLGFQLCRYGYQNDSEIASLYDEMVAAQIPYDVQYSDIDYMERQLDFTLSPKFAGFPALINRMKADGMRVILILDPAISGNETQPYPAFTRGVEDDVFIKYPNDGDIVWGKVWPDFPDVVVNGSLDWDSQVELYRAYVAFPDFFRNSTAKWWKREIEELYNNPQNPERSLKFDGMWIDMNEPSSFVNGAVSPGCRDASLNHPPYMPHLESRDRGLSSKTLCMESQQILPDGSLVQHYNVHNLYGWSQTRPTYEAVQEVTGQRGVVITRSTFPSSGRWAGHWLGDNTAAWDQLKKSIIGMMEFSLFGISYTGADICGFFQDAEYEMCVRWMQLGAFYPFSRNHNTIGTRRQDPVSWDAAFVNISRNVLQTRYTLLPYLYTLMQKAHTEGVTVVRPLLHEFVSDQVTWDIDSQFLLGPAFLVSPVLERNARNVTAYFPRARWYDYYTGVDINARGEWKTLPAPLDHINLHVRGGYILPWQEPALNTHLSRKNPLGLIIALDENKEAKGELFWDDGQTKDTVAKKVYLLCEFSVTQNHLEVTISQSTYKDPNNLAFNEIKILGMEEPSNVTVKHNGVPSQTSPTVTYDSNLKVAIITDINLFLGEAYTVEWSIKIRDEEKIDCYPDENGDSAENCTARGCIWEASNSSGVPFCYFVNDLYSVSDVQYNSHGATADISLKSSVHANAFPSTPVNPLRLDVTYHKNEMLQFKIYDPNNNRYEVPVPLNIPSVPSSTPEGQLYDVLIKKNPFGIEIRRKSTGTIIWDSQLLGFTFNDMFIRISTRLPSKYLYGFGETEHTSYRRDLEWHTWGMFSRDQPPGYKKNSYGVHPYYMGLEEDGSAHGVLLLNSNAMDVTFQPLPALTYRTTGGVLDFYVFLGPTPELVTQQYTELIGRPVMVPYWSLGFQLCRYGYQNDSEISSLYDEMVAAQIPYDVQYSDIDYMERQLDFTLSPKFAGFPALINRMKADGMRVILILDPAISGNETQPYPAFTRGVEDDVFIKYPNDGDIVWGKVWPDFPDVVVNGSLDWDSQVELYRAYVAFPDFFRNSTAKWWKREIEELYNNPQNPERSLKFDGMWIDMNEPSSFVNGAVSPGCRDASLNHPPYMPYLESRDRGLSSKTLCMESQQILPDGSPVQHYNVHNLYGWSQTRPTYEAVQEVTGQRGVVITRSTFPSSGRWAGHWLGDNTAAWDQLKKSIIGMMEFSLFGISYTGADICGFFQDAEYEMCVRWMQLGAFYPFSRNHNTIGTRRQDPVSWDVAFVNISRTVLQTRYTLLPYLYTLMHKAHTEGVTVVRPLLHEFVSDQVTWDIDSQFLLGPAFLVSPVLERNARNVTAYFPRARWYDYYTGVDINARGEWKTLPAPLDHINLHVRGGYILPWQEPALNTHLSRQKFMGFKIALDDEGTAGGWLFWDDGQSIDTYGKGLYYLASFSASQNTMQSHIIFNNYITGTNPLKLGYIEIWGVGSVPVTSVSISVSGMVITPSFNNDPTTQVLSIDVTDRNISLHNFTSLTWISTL

The first assay has as its target Maltase-glucoamylase (Homo sapiens, UniProt O43451). As to the kind of experiment: Inhibition of alpha-glucosidase (unknown origin).
As for `COc1ccc(C(c2c(O)c3cc(Cl)ccc3oc2=O)c2c(O)c3cc(Cl)ccc3oc2=O)cc1OC`, 91.4 µM corresponded to half-maximal inhibition (IC50).

`COc1ccc(C(c2c(O)c3cc(C)ccc3oc2=O)c2c(O)c3cc(C)ccc3oc2=O)cc1` [acs.jmedchem.1c00409_ST.500] yielded an IC50 of 107 µM.

For the compound `O=c1oc2ccc(Cl)cc2c(O)c1C(c1ccc(Cl)cc1Cl)c1c(O)c2cc(Cl)ccc2oc1=O`, the IC50 was determined as 16.5 µM.

For the compound `CCOc1cc(C(c2c(O)c3cc(Cl)ccc3oc2=O)c2c(O)c3cc(Cl)ccc3oc2=O)ccc1O`, half-maximal inhibition (IC50) was put at 57.1 µM.

The compound `O=c1oc2ccc(Cl)cc2c(O)c1C(c1cccc([N+](=O)[O-])c1)c1c(O)c2cc(Cl)ccc2oc1=O` returned a concentration for half-maximal inhibition (IC50) of 27.1 µM.

On to `CCOc1cc(C(c2c(O)c3cc(C)ccc3oc2=O)c2c(O)c3cc(C)ccc3oc2=O)ccc1O`, for which the IC50 was 221 µM. Against the preceding compound, the IC50 is about 8.2-fold higher.

As to `COc1cc(C(c2c(O)c3cc(Cl)ccc3oc2=O)c2c(O)c3cc(Cl)ccc3oc2=O)ccc1O`, it took 83.6 µM to reach half-maximal inhibition (IC50). Compared with the last compound, the IC50 is about 2.6-fold lower.

Turning to `COc1cc(C(c2c(O)c3cc(C)ccc3oc2=O)c2c(O)c3cc(C)ccc3oc2=O)cc(OC)c1OC`, the IC50 was found to be 386 µM.

For the compound `COc1cc(C(c2c(O)c3cc(Cl)ccc3oc2=O)c2c(O)c3cc(Cl)ccc3oc2=O)cc(OC)c1OC`, the IC50 turned out to be 128 µM.

In turn, `COc1ccc(C(c2c(O)c3cc(Cl)ccc3oc2=O)c2c(O)c3cc(Cl)ccc3oc2=O)cc1O` displayed an IC50 of 113 µM. The IC50 values of the last two compounds are within 1.5-fold of each other.

`O=c1oc2ccc(Cl)cc2c(O)c1C(c1cccc(O)c1)c1c(O)c2cc(Cl)ccc2oc1=O` displayed a 50% inhibitory concentration (IC50) of 84.1 µM.

A further assay deals with Alpha-glucosidase (Saccharomyces cerevisiae). As to the kind of experiment: Inhibition of Saccharomyces cerevisiae alpha-glucosidase using pNPG as substrate incubated for 30 mins by microplate reader analysis.
With `O=c1ccc2ccc(Oc3cc4cc(O)c(O)cc4oc3=O)cc2o1` [6,7-dihydroxy-3,7'-dicoumaryl ether], the IC50 was determined as 0.05 µM.

The compound `COc1cc2c(O)c(Oc3cc(O[C@@H]4O[C@H](CO)[C@@H](O)[C@H](O)[C@H]4O[C@@H]4O[C@H](CO)[C@@H](O)[C@H](O)[C@H]4O)c4ccc(=O)oc4c3)c(=O)oc2cc1O` had an IC50 of 0.231 µM.

`COc1cc2cc(Oc3ccc4ccc(=O)oc4c3)c(=O)oc2cc1O` [Daphnoretin] yielded a half-inhibitory concentration (IC50) of 0.086 µM.
